# Data taken from patent US10526316B2, “Quinoxaline and pyridopyrazine derivatives as PI3Kβ inhibitors” (Janssen Pharmaceutica NV, priority 2015, dated 2020).
# Assays:
# [1] = test system: Akt phosphorylated at Ser473 in PC-3 cells; test: Cellular assay: phosphorylation of Akt at Ser473 in PC-3 cells (MSD ELISA); format: cell-based; settings: PC-3 cells, 60 min compound incubation, MSD ELISA; read-out: IC50 pAkt_S473
# Protocol: (§1) Cellular activity of PI3KP inhibitors was determined by quantifying the phosphorylation of Akt in PC-3 cells. Akt phosphorylated at Ser473 and Thr308 were measured using an enzyme-linked immunosorbent assay (ELISA; Meso Scale Discovery (MSD), Gaithersburg. Md.) and specific primary antibodies from MSD.
# (§2) On day 2, compound or DMSO (0.3%) was added and cells were further incubated for 60 min at 37° C. 5% CO2 in a total volume of 100 μl of medium.
# (§3) The phosphoprotein assay was executed according to vendor instructions in the Phospho-Akt (Ser473) Assay Whole Cell Lysate Kit (MSD # K15100D-3) and the Phospho-Akt (Thr308) Assay Whole Cell Lysate Kit (MSD # K151DYD-3) using the lysis, blocking and wash buffer provided.
# (§4) Briefly, at the end of the cell treatment period, media were removed by aspiration and adherent cells were lysed in 50 μl ice-cold lysis buffer. MSD plates are supplied pre-coated with capture antibodies for Phospho-Akt (Ser473 and Thr308). After blocking, lysates from tissue culture plates were added and plates were washed. Then, a solution containing the detection antibody (anti-total Akt conjugated with an electrochemiluminescent compound-MSD Sulfo-tag label) was added. The signals were detected using an MSD SECTOR Imager 6000 and are proportional to the phospho-Akt titres.
# (§5) Data were processed. […] From these concentration-response curves, the IC50 values were calculated. Five concentrations were used for curve fitting.
# PI3Kδ = biological target: T1, PI3Kδ (Homo sapiens, UniProt O00329); test: Enzyme binding assay (KINOMEscan, DiscoveRx); settings: PIK3Cδ_h
# T1 construct: purchased DiscoveRx Corporation, San Diego (contract service, KINOMEscan)
# T1 sequence (O00329 1-1044): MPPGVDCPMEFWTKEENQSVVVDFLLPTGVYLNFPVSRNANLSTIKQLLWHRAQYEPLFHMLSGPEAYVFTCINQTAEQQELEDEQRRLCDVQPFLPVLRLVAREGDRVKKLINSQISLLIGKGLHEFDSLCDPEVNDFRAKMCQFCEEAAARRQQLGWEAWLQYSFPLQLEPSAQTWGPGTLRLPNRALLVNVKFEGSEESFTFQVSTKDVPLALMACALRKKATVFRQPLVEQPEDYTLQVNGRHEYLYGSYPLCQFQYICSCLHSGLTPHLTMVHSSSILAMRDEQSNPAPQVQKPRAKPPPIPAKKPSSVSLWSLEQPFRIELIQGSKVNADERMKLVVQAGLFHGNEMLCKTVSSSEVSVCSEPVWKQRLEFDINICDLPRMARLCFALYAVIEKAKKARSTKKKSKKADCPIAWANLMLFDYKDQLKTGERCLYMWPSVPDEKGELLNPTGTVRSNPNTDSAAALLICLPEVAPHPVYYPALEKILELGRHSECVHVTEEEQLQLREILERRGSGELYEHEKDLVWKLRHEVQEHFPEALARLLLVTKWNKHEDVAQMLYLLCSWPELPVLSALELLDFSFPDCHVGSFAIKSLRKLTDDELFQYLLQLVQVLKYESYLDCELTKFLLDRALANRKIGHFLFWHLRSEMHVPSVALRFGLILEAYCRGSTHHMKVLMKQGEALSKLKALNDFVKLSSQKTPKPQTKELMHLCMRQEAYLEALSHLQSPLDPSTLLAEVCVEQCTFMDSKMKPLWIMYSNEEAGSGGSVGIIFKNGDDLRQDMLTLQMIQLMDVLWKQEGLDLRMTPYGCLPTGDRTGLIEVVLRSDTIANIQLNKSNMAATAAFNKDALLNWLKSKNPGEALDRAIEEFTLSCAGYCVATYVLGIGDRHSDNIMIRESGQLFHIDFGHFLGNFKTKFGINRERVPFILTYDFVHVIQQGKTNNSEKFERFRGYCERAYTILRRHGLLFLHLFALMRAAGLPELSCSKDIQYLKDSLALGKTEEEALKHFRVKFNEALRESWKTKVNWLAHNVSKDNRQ
# Protocol: (§6) Enzyme Binding Assays (KINOMEscan®)
# (§7) Kinase enzyme binding affinities of compounds disclosed herein were determined using the KINOMEscan technology performed by DiscoveRx Corporation, San Diego, Calif., USA (www.kinomescan.com).
# PI3Kβ = biological target: T2, PI3Kβ (Homo sapiens, UniProt P42338); test: Enzyme binding assay (KINOMEscan, DiscoveRx); settings: PIK3Cβ_h, read-out: Kd PIK3Cβ_h
# T2 construct: purchased DiscoveRx Corporation, San Diego (contract service, KINOMEscan)
# Protocol: as §6
# Kinase enzyme binding affinities of compounds disclosed herein were determined using the KINOMEscan technology performed by DiscoveRx Corporation, San Diego, Calif., USA (www.kinomescan.com). Table A reports the obtained Kd values (nM), with the Kd being the inhibitor binding constant: […]
# kinase enzymes [2] = biological target: T3, kinase enzymes (Homo sapiens, UniProt P42345); test: Enzyme binding assay (KINOMEscan, DiscoveRx), further kinases of Table A; settings: MTOR_h
# T3 construct: purchased DiscoveRx Corporation, San Diego (contract service, KINOMEscan)
# Protocol: as §6, §7
# kinase enzymes [3] = biological target: T4, kinase enzymes (Homo sapiens, UniProt P48736); test: as above; settings: PIK3Cγ_h
# T4 construct: purchased DiscoveRx Corporation, San Diego (contract service, KINOMEscan)
# Protocol: as §6, §7
# kinase enzymes [4] = biological target: T5, kinase enzymes (Homo sapiens, UniProt P42336); test: as above; settings: PIK3Cα_h
# T5 construct: purchased DiscoveRx Corporation, San Diego (contract service, KINOMEscan)
# Protocol: as §6, §7
# [5] = test system: Akt phosphorylated at Thr308 in PC-3 cells; test: Cellular assay: phosphorylation of Akt at Thr308 in PC-3 cells (MSD ELISA); format: cell-based; settings: PC-3 cells, 60 min compound incubation, MSD ELISA; read-out: IC50 pAkt_Thr308
# Protocol: as §1, §2, §3, §4, §5
# T2 sequence (P42338 whole entry): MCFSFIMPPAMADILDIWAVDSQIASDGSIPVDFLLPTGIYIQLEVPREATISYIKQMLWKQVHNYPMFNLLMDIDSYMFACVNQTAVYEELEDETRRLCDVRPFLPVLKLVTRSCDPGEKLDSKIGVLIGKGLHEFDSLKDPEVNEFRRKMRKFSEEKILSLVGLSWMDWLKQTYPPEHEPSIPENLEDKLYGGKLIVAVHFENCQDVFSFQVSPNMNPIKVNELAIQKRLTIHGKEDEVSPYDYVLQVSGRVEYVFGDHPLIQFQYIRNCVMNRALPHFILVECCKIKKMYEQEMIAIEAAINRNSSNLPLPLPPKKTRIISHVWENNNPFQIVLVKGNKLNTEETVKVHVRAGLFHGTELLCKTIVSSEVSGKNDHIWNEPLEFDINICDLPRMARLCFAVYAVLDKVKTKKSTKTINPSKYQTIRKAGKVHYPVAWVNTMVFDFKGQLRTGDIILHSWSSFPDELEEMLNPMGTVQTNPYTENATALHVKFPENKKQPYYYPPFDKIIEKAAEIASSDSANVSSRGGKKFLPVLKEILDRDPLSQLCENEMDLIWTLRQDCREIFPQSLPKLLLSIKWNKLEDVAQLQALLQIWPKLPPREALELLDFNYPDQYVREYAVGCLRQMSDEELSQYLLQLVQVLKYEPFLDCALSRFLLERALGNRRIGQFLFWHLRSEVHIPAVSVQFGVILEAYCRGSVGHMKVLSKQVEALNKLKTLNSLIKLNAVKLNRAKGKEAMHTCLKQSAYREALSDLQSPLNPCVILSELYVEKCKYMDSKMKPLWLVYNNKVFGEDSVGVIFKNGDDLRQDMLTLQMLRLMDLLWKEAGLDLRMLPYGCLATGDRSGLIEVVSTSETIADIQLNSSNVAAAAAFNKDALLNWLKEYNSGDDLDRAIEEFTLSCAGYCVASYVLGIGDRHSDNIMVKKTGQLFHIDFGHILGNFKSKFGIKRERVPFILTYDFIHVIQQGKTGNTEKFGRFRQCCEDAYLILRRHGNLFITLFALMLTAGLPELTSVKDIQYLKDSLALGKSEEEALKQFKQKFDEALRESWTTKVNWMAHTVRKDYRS
# T5 sequence (P42336 whole entry): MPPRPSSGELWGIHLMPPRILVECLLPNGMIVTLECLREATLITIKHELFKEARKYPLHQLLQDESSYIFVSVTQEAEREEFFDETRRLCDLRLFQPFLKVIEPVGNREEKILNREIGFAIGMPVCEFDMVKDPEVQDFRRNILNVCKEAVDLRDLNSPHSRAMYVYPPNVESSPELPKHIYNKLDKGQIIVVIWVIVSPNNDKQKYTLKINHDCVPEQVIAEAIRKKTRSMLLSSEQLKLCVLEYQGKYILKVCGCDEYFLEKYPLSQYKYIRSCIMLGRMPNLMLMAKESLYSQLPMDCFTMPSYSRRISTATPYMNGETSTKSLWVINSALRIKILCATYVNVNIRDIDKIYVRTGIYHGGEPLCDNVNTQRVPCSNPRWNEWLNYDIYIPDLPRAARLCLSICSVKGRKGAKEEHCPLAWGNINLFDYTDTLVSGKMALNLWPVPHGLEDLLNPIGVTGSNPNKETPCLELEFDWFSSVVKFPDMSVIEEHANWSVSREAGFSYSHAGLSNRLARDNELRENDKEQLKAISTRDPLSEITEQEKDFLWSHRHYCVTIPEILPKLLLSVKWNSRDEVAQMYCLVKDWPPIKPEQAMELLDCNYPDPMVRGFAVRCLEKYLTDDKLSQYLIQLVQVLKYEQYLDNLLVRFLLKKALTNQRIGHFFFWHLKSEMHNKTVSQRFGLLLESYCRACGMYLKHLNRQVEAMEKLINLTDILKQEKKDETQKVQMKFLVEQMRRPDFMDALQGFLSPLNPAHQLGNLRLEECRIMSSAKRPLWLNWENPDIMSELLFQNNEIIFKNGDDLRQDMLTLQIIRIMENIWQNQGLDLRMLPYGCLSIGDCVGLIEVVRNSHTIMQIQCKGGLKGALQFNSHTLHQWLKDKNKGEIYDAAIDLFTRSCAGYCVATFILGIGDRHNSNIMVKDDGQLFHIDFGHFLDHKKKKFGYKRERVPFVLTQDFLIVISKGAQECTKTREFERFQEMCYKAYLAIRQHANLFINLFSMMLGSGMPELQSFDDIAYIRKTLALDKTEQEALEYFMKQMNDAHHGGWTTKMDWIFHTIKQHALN
# T4 sequence (P48736 whole entry): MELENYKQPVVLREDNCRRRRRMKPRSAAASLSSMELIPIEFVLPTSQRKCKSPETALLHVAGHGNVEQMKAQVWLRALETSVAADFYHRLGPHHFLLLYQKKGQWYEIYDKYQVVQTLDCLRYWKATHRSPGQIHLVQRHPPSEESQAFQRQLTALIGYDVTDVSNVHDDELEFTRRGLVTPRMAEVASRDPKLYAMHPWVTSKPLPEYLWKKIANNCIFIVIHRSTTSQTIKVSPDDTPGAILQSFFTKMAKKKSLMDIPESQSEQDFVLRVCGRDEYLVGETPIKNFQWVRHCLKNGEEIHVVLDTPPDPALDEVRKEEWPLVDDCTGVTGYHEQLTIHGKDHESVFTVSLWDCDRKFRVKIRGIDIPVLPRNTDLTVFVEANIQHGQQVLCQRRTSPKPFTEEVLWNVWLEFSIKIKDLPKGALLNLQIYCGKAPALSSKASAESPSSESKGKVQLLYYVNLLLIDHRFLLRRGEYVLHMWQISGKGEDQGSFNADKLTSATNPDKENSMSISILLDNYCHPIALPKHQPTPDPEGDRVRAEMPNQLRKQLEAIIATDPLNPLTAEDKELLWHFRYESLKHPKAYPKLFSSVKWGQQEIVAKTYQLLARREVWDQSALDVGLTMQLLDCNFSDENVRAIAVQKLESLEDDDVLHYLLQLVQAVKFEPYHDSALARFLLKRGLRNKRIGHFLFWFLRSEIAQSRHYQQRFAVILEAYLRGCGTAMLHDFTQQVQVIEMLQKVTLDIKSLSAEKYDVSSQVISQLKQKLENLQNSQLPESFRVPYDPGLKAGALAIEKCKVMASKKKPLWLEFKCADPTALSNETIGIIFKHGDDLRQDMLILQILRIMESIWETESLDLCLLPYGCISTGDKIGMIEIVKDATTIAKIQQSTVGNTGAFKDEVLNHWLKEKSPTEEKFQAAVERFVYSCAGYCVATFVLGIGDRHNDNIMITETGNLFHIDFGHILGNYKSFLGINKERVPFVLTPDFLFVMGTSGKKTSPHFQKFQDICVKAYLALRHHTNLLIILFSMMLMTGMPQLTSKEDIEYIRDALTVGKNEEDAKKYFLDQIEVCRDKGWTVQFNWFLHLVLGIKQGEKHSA
SMILES,IC50 [1],Kd (PI3Kδ),Kd (PI3Kβ),Kd (kinase enzymes [2]),Kd (kinase enzymes [3]),Kd (kinase enzymes [4]),IC50 [5]
"CC(Nc1ccc(F)c(F)c1)c1cc(C(=O)NCCO)cc2ncc(N3CCOCC3)nc12 (single isomer, unassigned) [Compound 279b]",0.059 µM,–,1.91 µM,> 30.2 µM,6.46 µM,26.3 µM,> 0.513 µM
"CC(C)NCCNC(=O)c1cc(C(C)Oc2ccc(F)c(F)c2)c2nc(N3CCOCC3)cnc2c1 (single isomer, unassigned) [Compound 286b]",–,0.355 µM,0.002 µM,> 30.2 µM,16.2 µM,6.03 µM,0.204 µM
"CC(C)NCCNC(=O)c1cc(C(C)Oc2cccc(F)c2)c2nc(N3CCOCC3)cnc2c1 (single isomer, unassigned) [Compound 314b]",0.191 µM,1 µM,0.002 µM,> 30.2 µM,16.6 µM,8.91 µM,–
"CNCCN(C)C(=O)c1cc(C(C)Oc2cc(F)c(F)c(F)c2)c2nc(N3CCOCC3)cnc2c1 (single isomer, unassigned) [Compound 379b]",–,> 30.2 µM,1.26 µM,> 30.2 µM,> 30.2 µM,> 30.2 µM,–
"O=C(NCCO)c1cc(N2CCC2c2ccc(F)cc2)c2nc(N3CCOCC3)cnc2c1 (single isomer, unassigned) [Compound 391a]",–,> 30.2 µM,10.7 µM,17 µM,> 30.2 µM,> 30.2 µM,–
"O=C(NCCO)c1cc(N2CCC2c2ccc(F)cc2)c2nc(N3CCOCC3)cnc2c1 (single isomer, unassigned) [Compound 391b]",–,> 30.2 µM,19.5 µM,> 30.2 µM,> 30.2 µM,> 30.2 µM,–

# The remaining lines, values ahead:
IC50 [1],Kd (PI3Kδ),Kd (PI3Kβ),Kd (kinase enzymes [2]),Kd (kinase enzymes [3]),Kd (kinase enzymes [4]),IC50 [5],SMILES
0.001 µM,0.032 µM,0.0003 µM,> 30.2 µM,0.912 µM,0.126 µM,–,"CC(Nc1cc(F)cc(F)c1)c1cc(C(=O)N(C)CCN(C)C)cc2ncc(N3CCOCC3)nc12 (single isomer, unassigned) [Compound 182]"
–,23.4 µM,0.537 µM,> 30.2 µM,> 30.2 µM,24 µM,–,"CC(Nc1ccc(F)c(F)c1)c1cc(C(=O)N2CC[C@@H](O)C2)cc2ncc(N3CCOCC3)nc12 (single isomer, unassigned) [Compound 300b]"
–,2.82 µM,0.2 µM,> 30.2 µM,> 30.2 µM,9.12 µM,–,"CN(Cc1cc(F)cc(F)c1)c1cc(C(=O)N2CCNC(C(F)(F)F)C2)cc2ncc(N3CCOCC3)nc12 (single isomer, unassigned) [Compound 319a]"
–,17 µM,1.29 µM,27.5 µM,> 30.2 µM,31.6 µM,–,"CC(Oc1ccc(F)c(F)c1)c1cc(C(=O)N2CC[C@H](N(C)C)C2)cc2ncc(N3CCOCC3)nc12 (single isomer, unassigned) [Compound 363b]"
–,4.17 µM,0.251 µM,> 30.2 µM,22.9 µM,15.5 µM,–,"CN[C@H]1CCN(C(=O)c2cc(C(C)Nc3ccc(F)c(F)c3)c3nc(N4CCOCC4)cnc3c2)C1 (single isomer, unassigned) [Compound 365b]"
–,> 30.2 µM,0.933 µM,> 30.2 µM,> 30.2 µM,> 30.2 µM,–,"CC(Nc1cc(F)c(F)c(F)c1)c1cc(C(=O)N2CCCN(C(C)C)CC2)cc2ncc(N3CCOCC3)nc12 (single isomer, unassigned) [Compound 388a]"
